Results reported in paper PMC11093748, “De novo identification of CD4^+ T cell epitopes” (Nature Methods, 2024).

tested on: TCR3; experiment: I-Ag7 SABR-II library screen, enrichment score; assay type: cell-based, mouse; conditions: I-Ag7 library; one biological experiment
From the text: (§1) We then asked whether SABR-IIs could be used to present a library of epitopes for CD4^+ T cell antigen discovery. To that end, we constructed a SABR-II library to present epitopes derived from pancreatic islets in I-Ag7 by curating a list of 4,075 published epitopes from the Immune Epitope Database (iedb.org)[50] and a study by Wan et al.[51] (Supplementary Table 1). Of note, this defined library consisted of unmodified epitopes from endogenous proteins, synthetic mimotopes, deamidated epitopes and hybrid insulin peptides (HIPs) that arise from post-translational fusion and are not genetically encoded in vivo[52],[53]. The epitope library was inserted into the I-Ag7 SABR-II backbone through pooled oligonucleotide synthesis, amplification and ligation-free cloning (Extended Data Fig. 3a). The I-Ag7 SABR-II-library was then expressed in NFAT–GFP Jurkat cells. We confirmed that after sequencing, the library accounted for a mean of 708 reads per epitope (Extended Data Fig. 3b). As a proof of concept, we performed co-incubation assays with Jurkat cells expressing the BDC2.5 TCR and sorted the top 1–2% of GFP^+CD69^+ cells at a rate of ~20 min per replicate with three replicates per TCR. We extracted the genomic DNA from sorted cells, amplified the SABR portion of the integrated proviruses and subjected the amplicons to Illumina sequencing (Extended Data Fig. 3c,d). The 1–2% sort gate represents >50-fold enrichment of cognate epitopes with minimal loss of signal (Extended Data Fig. 3e–h). Sequence reads were aligned to the I-Ag7 SABR-II backbone and the corresponding epitopes were scored based on their read counts. For each TCR under investigation, an enrichment score (ES) was determined for all the epitopes in a library. In each experiment, three replicates of a sort with TCR-expressing Jurkat cells were performed and reads were counted post-sequencing. In addition, three replicates of the unsorted library were also sequenced. A linear regression model was built using the unsorted library counts and used to determine the expected abundance of each epitope in the library. The ES was calculated based on the difference between the measured and the expected abundance of each epitope on a per-TCR basis (Fig. 1e). Based on ES values, two quantitative thresholds were used to determine putative cognate epitopes of a given TCR. A high-confidence zone containing clear outliers with a high ES and a low-confidence zone containing weak outliers with a moderately high ES were determined (Fig. 1e). This two-tiered strategy was used to call putative hits from screens. All the top-scoring epitopes for the BDC2.5 TCR were known BDC2.5 ligands containing the WXRM(D/E) motif (Fig. 1f,g, enriched ligands in red), a well-characterized trait of the BDC2.5 TCR[43],[54]–[56]. Across several independent experiments there was limited variation in ES values for the same TCRs and several epitopes fell into high- or low-confidence zones consistently (Extended Data Fig. 4a). Using a different TCR that was isolated from NOD mice, 4-8Ins[57], which recognized the InsB9:23 epitope ([…]), we observed a similar pattern of ES for cognate epitopes (Extended Data Fig. 4b).
(§2) We performed systematic screening of the cloned TCRs against the I-Ag7 SABR-II library. Several TCRs along with a positive control (such as BDC2.5 or 4-8Ins) were screened individually against the library for each sort (Extended Data Fig. 6a and Supplementary Table 4). High- and low-confidence ES zones for each screened TCR were defined by the ES values of the control TCR’s cognate epitopes. For all putative cognate epitopes, single SABR-IIs were constructed, expressed in NFAT–GFP Jurkat cells and used for co-incubation with the corresponding TCRs. Co-incubation assays that yielded a GFP signal higher than that obtained in assays with no TCR were determined to be positive and the epitopes deemed true cognate ligands (Extended Data Fig. 6b,c). […]

Sequence | Enrichment score
AAVEEGIVAGGGVTLL | -0.00015
AEKVRNLPAGHGLNAQ | -2.569e-5
AGGVAVIKAGAATEV | -3.191e-5
AKAAVEEGIVAGGGV | -0.0001294
ALVREGLRNVAAGANP | -2.328e-5

same assay, conditions: sheet TCR3-PZ37; ES = TCRObserved - TCRPredicted; TCRPredicted = LIBObserved x SLOPE + INTERCEPT; SLOPE 0.907522, INTERCEPT 2.2694e-5

Sequence | Enrichment score
AAVEEGIVAGGGVTLL | -0.00015
AEKVRNLPAGHGLNAQ | -2.569e-5
AGGVAVIKAGAATEV | -3.191e-5
AKAAVEEGIVAGGGV | -0.0001294
ALVREGLRNVAAGANP | -2.328e-5

tested on: TCR8; experiment: I-Ag7 SABR-II library screen, enrichment score; assay type: cell-based, mouse; conditions: TCR_Mean minus PREDICTED_TCR (from LIB_Mean, SLOPE 0.946603, INTERCEPT 1.31036e-5), PZ47
From the text: as §1, §2

Sequence | Enrichment score
AAVEEGIVAGGGVTLL | -2.679e-5
AEKVRNLPAGHGLNAQ | -5.38e-5
AGGVAVIKAGAATEV | -5.809e-5
AKAAVEEGIVAGGGV | 4.499e-5
ALVREGLRNVAAGANP | -1.329e-5

tested on: TCR21A; experiment: I-Ag7 SABR-II library screen, enrichment score; assay type: cell-based, mouse; conditions: TCR_Mean minus PREDICTED_TCR (slope 0.957287, intercept 1.04818e-5 on LIB_Mean), TCR 21A, run PZ56
From the text: as §1, §2

Sequence | Enrichment score
AAVEEGIVAGGGVTLL | 7.745e-5
AEKVRNLPAGHGLNAQ | 0.0001683
AGGVAVIKAGAATEV | 3.881e-5
AKAAVEEGIVAGGGV | -4.928e-5
ALVREGLRNVAAGANP | -1.111e-5

tested on: TCR35; experiment: I-Ag7 SABR-II library screen, enrichment score; assay type: cell-based, mouse; conditions: TCR_Mean minus PREDICTED_TCR (slope 0.982658, intercept 4.25575e-6 on LIB_Mean), TCR 35, run PZ101
From the text: as §1, §2

Sequence | Enrichment score
AAVEEGIVAGGGVTLL | -8.894e-5
AEKVRNLPAGHGLNAQ | -0.0001779
AGGVAVIKAGAATEV | 7.19e-5
AKAAVEEGIVAGGGV | -4.28e-5
ALVREGLRNVAAGANP | -4.256e-6

tested on: TCR32; experiment: I-Ag7 SABR-II library screen, enrichment score; assay type: cell-based, mouse; conditions: TCR_Mean minus PREDICTED_TCR (slope 0.962506, intercept 9.20103e-6 on LIB_Mean), TCR 32, run PZ98
From the text: as §1, §2

Sequence | Enrichment score
AAVEEGIVAGGGVTLL | 3.811e-5
AEKVRNLPAGHGLNAQ | 4.971e-5
AGGVAVIKAGAATEV | 9.791e-5
AKAAVEEGIVAGGGV | -4.13e-5
ALVREGLRNVAAGANP | -9.201e-6

tested on: TCR10B; experiment: I-Ag7 SABR-II library screen, enrichment score; assay type: cell-based, mouse; conditions: TCR_Mean minus PREDICTED_TCR (from LIB_Mean, SLOPE 0.894516, INTERCEPT 2.58857e-5), PZ51
From the text: as §1, §2

Sequence | Enrichment score
AAVEEGIVAGGGVTLL | -7.785e-5
AEKVRNLPAGHGLNAQ | -0.0001336
AGGVAVIKAGAATEV | 1.586e-6
AKAAVEEGIVAGGGV | 7.202e-5
ALVREGLRNVAAGANP | -2.589e-5

tested on: TCR34; experiment: I-Ag7 SABR-II library screen, enrichment score; assay type: cell-based, mouse; conditions: TCR_Mean minus PREDICTED_TCR (slope 0.916696, intercept 2.04427e-5 on LIB_Mean), TCR 34, run PZ57
From the text: as §1, §2

Sequence | Enrichment score
AAVEEGIVAGGGVTLL | -0.0002018
AEKVRNLPAGHGLNAQ | 6.942e-5
AGGVAVIKAGAATEV | -0.0001037
AKAAVEEGIVAGGGV | 3.575e-5
ALVREGLRNVAAGANP | -2.044e-5

tested on: TCR36; experiment: I-Ag7 SABR-II library screen, enrichment score; assay type: cell-based, mouse; conditions: TCR_Mean minus PREDICTED_TCR (slope 0.914754, intercept 2.09193e-5 on LIB_Mean), TCR 36, run PZ57
From the text: as §1, §2

Sequence | Enrichment score
AAVEEGIVAGGGVTLL | -0.0001187
AEKVRNLPAGHGLNAQ | -6.905e-5
AGGVAVIKAGAATEV | -1.016e-5
AKAAVEEGIVAGGGV | -3.854e-5
ALVREGLRNVAAGANP | -2.092e-5

tested on: TCR21B; experiment: I-Ag7 SABR-II library screen, enrichment score; assay type: cell-based, mouse; conditions: TCR_Mean minus PREDICTED_TCR (slope 0.954708, intercept 1.11146e-5 on LIB_Mean), TCR 21B, run PZ56
From the text: as §1, §2

Sequence | Enrichment score
AAVEEGIVAGGGVTLL | -9.242e-5
AEKVRNLPAGHGLNAQ | 8.732e-6
AGGVAVIKAGAATEV | -9.6548e-5
AKAAVEEGIVAGGGV | -2.11e-5
ALVREGLRNVAAGANP | -1.174e-5

tested on: 4-8Ins TCR; experiment: I-Ag7 SABR-II library screen, enrichment score; assay type: cell-based, mouse; conditions: EXPT1 of 3 biological experiments
From the text: as §1
For SABR library screens, 3 × 10^6 NFAT–GFP Jurkat cells expressing the SABR library were labeled with CellTrace Violet (BioLegend) according to the manufacturer’s protocol before incubation with 3 × 10^6 Jurkat cells expressing the TCR of interest. These mixtures were incubated in a six-well plate for 16–20 h. Cells were stained with anti-CD69-APC-Cy7 where indicated (BioLegend) and the top 1–2% of GFP^+CD69^+ cells were sorted for genomic DNA extraction, indexing and sequencing (see below). Multiplexed assays were scaled on a per-TCR basis (for example 3 × 10^6 for each of three TCRs against 9 × 10^6 library cells). […]

Sequence | Enrichment score
AAVEEGIVAGGGVTLL | 6.335e-5
AEKVRNLPAGHGLNAQ | -3.1932e-6
AGGVAVIKAGAATEV | 2.615e-5
AKAAVEEGIVAGGGV | -1.842e-5
ALVREGLRNVAAGANP | -1.064e-5

same assay, conditions: EXPT2 of 3

Sequence | Enrichment score
AAVEEGIVAGGGVTLL | -6.366e-5
AEKVRNLPAGHGLNAQ | 0.0001517
AGGVAVIKAGAATEV | -2.489e-5
AKAAVEEGIVAGGGV | 0.0001302
ALVREGLRNVAAGANP | -1.266e-5

same assay, conditions: EXPT3 of 3

Sequence | Enrichment score
AAVEEGIVAGGGVTLL | -1.563e-5
AEKVRNLPAGHGLNAQ | -4.244e-5
AGGVAVIKAGAATEV | 4.9e-5
AKAAVEEGIVAGGGV | -6.807e-5
ALVREGLRNVAAGANP | -8.85e-6
